32 molecules from patent US7491794B2, “Macrocyclic compounds as inhibitors of viral replication” (Intermune, Inc., priority 2003, dated 2009) can be followed below.

Each structure is given as a SMILES string.

The target of this test is T1, NS3-NS4 protease (Hepatitis C virus genotype 1a, UniProt P27958).
T1 construct: Recombinant E. coli or Baculovirus full-length NS3 was diluted to 3.33 μM with assay buffer; made in house; host or cells: E. coli or baculovirus (BV) system
T1 sequence (P27958 1027-1657): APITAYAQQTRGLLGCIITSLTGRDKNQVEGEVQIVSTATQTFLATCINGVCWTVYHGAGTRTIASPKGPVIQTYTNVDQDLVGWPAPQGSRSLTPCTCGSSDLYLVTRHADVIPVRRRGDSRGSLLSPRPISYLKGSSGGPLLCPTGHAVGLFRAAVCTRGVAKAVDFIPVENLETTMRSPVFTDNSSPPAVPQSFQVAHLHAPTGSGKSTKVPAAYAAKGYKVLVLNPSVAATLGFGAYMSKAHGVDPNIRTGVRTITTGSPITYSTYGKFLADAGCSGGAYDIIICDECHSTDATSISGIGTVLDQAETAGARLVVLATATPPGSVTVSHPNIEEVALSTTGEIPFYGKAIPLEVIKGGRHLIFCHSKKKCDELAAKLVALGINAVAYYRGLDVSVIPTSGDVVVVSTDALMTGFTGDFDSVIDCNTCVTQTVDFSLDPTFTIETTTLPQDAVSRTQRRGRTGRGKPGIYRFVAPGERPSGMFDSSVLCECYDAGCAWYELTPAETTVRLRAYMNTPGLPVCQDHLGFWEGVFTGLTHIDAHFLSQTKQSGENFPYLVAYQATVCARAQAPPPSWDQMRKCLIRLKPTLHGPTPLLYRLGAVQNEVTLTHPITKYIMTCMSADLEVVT
As to the kind of experiment: NS3-NS4 protease assay / NS3 inhibition assay, Section D. The class given is biochemical. The protocol:
NS3-NS4 Protease Assay NS3 complex formation with NS4A-2.
Recombinant E. coli or Baculovirus full-length NS3 was diluted to 3.33 μM with assay buffer and transferred material to an eppendorf tube and place in water bath in 4° C. refrigerator. The appropriate amount of NS4A-2 to 8.3 mM in assay buffer was added to equal the volume of NS3 in step 2.1.1 (conversion factor −3.8 mg/272 μL assay buffer). The material was transferred to an eppendorf tube and place in water bath in 4° C. refrigerator.
After equilibration to 4° C., equal volumes of NS3 and NS4A-2 solutions were combined in an eppendorf tube, mix gently with a manual pipettor, and incubate mixture for 15 minutes in the 4° C. water bath. Final concentrations in the mixture are 1.67 μM NS3, 4.15 mM NS4A-2 (2485-fold molar excess NS4A-2).
After 15 minutes at 4° C., the NS3/NS4A-2 eppendorf tube was removed and placed in a room temperature water bath for 10 minutes. NS3/NS4A-2 was alliquoted at appropriate volumes and store at −80° C. (E. coli NS3 run at 2 nM in assay, aliquot at 25 μL. BV NS3 run at 3 nM in assay, aliquot at 30 μL).
Sample compounds were dissolved to 10 mM in DMSO then diluted to 2.5 mM (1:4) in DMSO.
The E. coli. NS3/NS4A-2 was diluted to 4 nM NS3 (1:417.5 of 1.67 μM stock−18 μL 1.67 μM stock+7497 μL assay buffer).
The BV NS3/NS4A-2 was diluted to 6 nM NS3 (1:278.3 of 1.67 μM stock−24 μL 1.67 μM stock+6655 μL assay buffer).
Using the manual multichannel pipettor, careful not to introduce bubbles into the plate, add 50 μL assay buffer to wells A01-H01 of a black Costar 96-well polypropylene storage plate.
Using the manual multichannel pipettor, careful not to introduce bubbles into the plate, add 50 μL of diluted NS3/NS4A-2 from step 2.2.6 to wells A02-H12 of plate in step 2.2.7.
Using the manual multichannel pipettor, careful not to introduce bubbles into the plate, transfer 25 μL of the wells in drug dilution plate in step 2.2.5 to corresponding wells in assay plate in step 2.2.8. Change tips on multichannel pipettor for each row of compounds transferred.
Using the manual multichannel pipettor, careful not to introduce bubbles into the plate, mix the wells from the assay plate in step 2.2.9 by aspirating and dispensing 35 μL of the 75 μL in each well five times. Change tips on multichannel pipettor for each row of wells mixed.
Cover plate with a polystyrene plate lid and pre-incubate the plate from step 2.2.10 containing NS3 protease and sample compounds 10 minutes at room temperature.
While plate from step 2.2.11 is pre-incubating, dilute RETS1 substrate in a 15 mL polypropylene centrifuge tube.
Dilute RETS1 substrate to 8 μM (1:80.75 of 646 μM stock−65 μL 646 μM stock+5184 μL assay buffer).
After the plate in step is done pre-incubating, and using the manual multichannel, add 25 μL of substrate to all wells on the plate. Quickly mix the plate as in step 2.2.10, mixing 65 μL of the 100 μL in the wells.
Read the plate in kinetic mode on the Molecular Devices SpectraMax Gemini XS plate reader. Reader settings: Read time: 30 minutes, Interval: 36 seconds, Reads: 51, Excitation k: 335 nm, Emission k: 495 nm, cutoff: 475 nm, Automix: off, Calibrate: once, PMT: high, Reads/well: 6, Vmax pts: 21 or 28/51 depending on length of linearity of reaction.
IC50s are determined using a four parameter curve fit equation, and converted to Ki's using the following Km's:
where Ki=IC50/(1+[S]/Km))
As for `Cn1c(C(=O)N[C@@H]2C[C@H]3C(=O)N[C@]4(C(=O)NS(=O)(=O)C5CC5)C[C@H]4/C=C\CCCCC[C@H](NC(=O)OC(C)(C)C)C(=O)N3C2)cc2ccccc21` [Example 35], the half-maximal inhibitory concentration (IC50) (as a rule, the midpoint of a concentration-inhibition curve) is under 100 nM. `CC(C)(C)OC(=O)N[C@H]1CCCCC/C=C\[C@@H]2C[C@@]2(C(=O)NS(=O)(=O)C2CC2)NC(=O)[C@@H]2C[C@@H](NC(=O)c3cc4cc(OC(F)(F)F)ccc4[nH]3)CN2C1=O` [Example 36] came in with an IC50 of under 100 nM. In turn, `COc1cc2cc(C(=O)N[C@@H]3C[C@H]4C(=O)N[C@]5(C(=O)NS(=O)(=O)C6CC6)C[C@H]5/C=C\CCCCC[C@H](NC(=O)OC(C)(C)C)C(=O)N4C3)[nH]c2cc1OC` [Example 37] came in with a half-inhibitory concentration (IC50) of under 100 nM.

Molecule `CC(C)(C)OC(=O)N[C@H]1CCCCC/C=C\[C@@H]2C[C@@]2(C(=O)NS(=O)(=O)C2CC2)NC(=O)[C@@H]2C[C@@H](NC(=O)c3ccc4cc[nH]c4c3)CN2C1=O` [Example 38] gave an IC50 of under 100 nM. On to `CC(C)(C)OC(=O)N[C@H]1CCCCC/C=C\[C@@H]2C[C@@]2(C(=O)NS(=O)(=O)C2CC2)NC(=O)[C@@H]2C[C@@H](NC(=O)c3cc4ccccc4o3)CN2C1=O` [Example 39], for which the 50% inhibitory concentration (IC50) is under 100 nM. Molecule `CC(C)(C)OC(=O)N[C@H]1CCCCC/C=C\[C@@H]2C[C@@]2(C(=O)NS(=O)(=O)C2CC2)NC(=O)[C@@H]2C[C@@H](NC(=O)c3cc4cc(Cl)ccc4o3)CN2C1=O` [Example 40] returned an IC50 of under 100 nM. `COc1ccc2oc(C(=O)N[C@@H]3C[C@H]4C(=O)N[C@]5(C(=O)NS(=O)(=O)C6CC6)C[C@H]5/C=C\CCCCC[C@H](NC(=O)OC(C)(C)C)C(=O)N4C3)cc2c1` [Example 41] showed an IC50 of under 100 nM. The molecule `COc1cccc2cc(C(=O)N[C@@H]3C[C@H]4C(=O)N[C@]5(C(=O)NS(=O)(=O)C6CC6)C[C@H]5/C=C\CCCCC[C@H](NC(=O)OC(C)(C)C)C(=O)N4C3)oc12` [Example 42] yielded an IC50 of under 100 nM. As for `CC(C)(C)OC(=O)N[C@H]1CCCCC/C=C\[C@@H]2C[C@@]2(C(=O)NS(=O)(=O)C2CC2)NC(=O)[C@@H]2C[C@@H](NC(=O)c3cc4ccccc4s3)CN2C1=O` [Example 43], the concentration for half-maximal inhibition (IC50) is under 100 nM. As for `CC(C)(C)OC(=O)N[C@H]1CCCCC/C=C\[C@@H]2C[C@@]2(C(=O)NS(=O)(=O)C2CC2)NC(=O)[C@@H]2C[C@@H](NC(=O)c3sc4cc(F)ccc4c3Cl)CN2C1=O` [Example 44], the IC50 is under 100 nM. The figure for `CC(C)(C)OC(=O)N[C@H]1CCCCC/C=C\[C@@H]2C[C@@]2(C(=O)NS(=O)(=O)C2CC2)NC(=O)[C@@H]2C[C@@H](NC(=O)c3sc4cccc(Cl)c4c3Cl)CN2C1=O` [Example 45] is under 100 nM. The figure for `CC(C)(C)OC(=O)N[C@H]1CCCCC/C=C\[C@@H]2C[C@@]2(C(=O)NS(=O)(=O)C2CC2)NC(=O)[C@@H]2C[C@@H](NC(=O)c3nc4ccccc4[nH]3)CN2C1=O` [Example 47] is under 100 nM; for `CC(C)(C)NC(=O)N[C@H]1CCCCC/C=C\[C@@H]2C[C@@]2(C(=O)NS(=O)(=O)C2CC2)NC(=O)[C@@H]2C[C@@H](NC(=O)c3sc4ccccc4c3Cl)CN2C1=O` [Example 49] it is under 100 nM.

In turn, `O=C(CCC(F)(F)F)N[C@H]1CCCCC/C=C\[C@@H]2C[C@@]2(C(=O)NS(=O)(=O)C2CC2)NC(=O)[C@@H]2C[C@@H](NC(=O)c3sc4ccccc4c3Cl)CN2C1=O` [Example 50] gave an IC50 of under 100 nM. For the molecule `CC(C)(C)CC(=O)N[C@H]1CCCCC/C=C\[C@@H]2C[C@@]2(C(=O)NS(=O)(=O)C2CC2)NC(=O)[C@@H]2C[C@@H](NC(=O)c3sc4ccccc4c3Cl)CN2C1=O` [Example 51], the IC50 is under 100 nM. The same measure for `O=C(N[C@H]1CCCCC/C=C\[C@@H]2C[C@@]2(C(=O)NS(=O)(=O)C2CC2)NC(=O)[C@@H]2C[C@@H](NC(=O)c3sc4ccccc4c3Cl)CN2C1=O)OCC1CC1` [Example 52]: under 100 nM; for `CC(CC(=O)N[C@H]1CCCCC/C=C\[C@@H]2C[C@@]2(C(=O)NS(=O)(=O)C2CC2)NC(=O)[C@@H]2C[C@@H](NC(=O)c3sc4ccccc4c3Cl)CN2C1=O)C(F)(F)F` (some centres unmarked) [Example 53]: under 100 nM. For `CC(C)(C)NC(=O)N[C@H]1CCCCC/C=C\[C@@H]2C[C@@]2(C(=O)NS(=O)(=O)C2CC2)NC(=O)[C@@H]2C[C@@H](NC(=O)c3cc4ccccc4s3)CN2C1=O` [Example 54], the IC50 was under 100 nM. `CC(C)(C)NC(=O)N[C@H]1CCCCC/C=C\[C@@H]2C[C@@]2(C(=O)NS(=O)(=O)C2CC2)NC(=O)[C@@H]2C[C@@H](NC(=O)c3sc4cc(F)ccc4c3Cl)CN2C1=O` [Example 55]: the half-maximal inhibitory concentration (IC50) is under 100 nM. The molecule `COc1ccc(C(=O)N[C@@H]2C[C@H]3C(=O)N[C@]4(C(=O)NS(=O)(=O)C5CC5)C[C@H]4/C=C\CCCCC[C@H](NC(=O)OC4CCCC4)C(=O)N3C2)cc1` [Example 56] registered a concentration for half-maximal inhibition (IC50) of under 100 nM. With `COc1ccc(C(=O)N[C@@H]2C[C@H]3C(=O)N[C@]4(C(=O)NS(=O)(=O)C5CC5)C[C@H]4/C=C\CCCCC[C@H](NC(=O)OC4CCCC4)C(=O)N3C2)cc1C(F)(F)F` [Example 57], the 50% inhibitory concentration (IC50) is under 100 nM. `COc1ccc(C(=O)N[C@@H]2C[C@H]3C(=O)N[C@]4(C(=O)NS(=O)(=O)C5CC5)C[C@H]4/C=C\CCCCC[C@H](NC(=O)NC4CCCC4)C(=O)N3C2)cc1C(F)(F)F` [Example 58] had a concentration for half-maximal inhibition (IC50) of under 100 nM. The same measure for `CC(C)(C)OC(=O)N[C@H]1CCCCC/C=C\[C@@H]2C[C@@]2(C(=O)O)NC(=O)[C@@H]2C[C@@H](NC(=O)c3cc4ccccc4s3)CN2C1=O` [Example 59]: under 10000 nM. As for `CC(C)(C)OC(=O)N[C@H]1CCCCC/C=C\[C@@H]2C[C@@]2(C(=O)O)NC(=O)[C@@H]2C[C@@H](NC(=O)c3ccccc3)CN2C1=O` [Example 60], the 50% inhibitory concentration (IC50) is under 10000 nM. As for `COc1ccc(C(=O)N[C@@H]2C[C@H]3C(=O)N[C@]4(C(=O)O)C[C@H]4/C=C\CCCCC[C@H](NC(=O)OC(C)(C)C)C(=O)N3C2)cc1` [Example 61], the half-maximal inhibitory concentration (IC50) was under 10000 nM. In turn, `CC(C)(C)OC(=O)N[C@H]1CCCCC/C=C\[C@@H]2C[C@@]2(C(=O)O)NC(=O)[C@@H]2C[C@@H](NC(=O)c3ccc4ccccc4c3)CN2C1=O` [Example 62] registered an IC50 of under 1000 nM. The same measure for `CC(C)(C)OC(=O)N[C@H]1CCCCC/C=C\[C@@H]2C[C@@]2(C(=O)O)NC(=O)[C@@H]2C[C@@H](NC(=O)c3cc4ccccc4[nH]3)CN2C1=O` [Example 63]: under 1000 nM; for `CC(C)(C)OC(=O)N[C@H]1CCCCC/C=C\[C@@H]2C[C@@]2(C(=O)O)NC(=O)[C@@H]2C[C@@H](NC(=O)c3sc4ccccc4c3Cl)CN2C1=O` [Example 64]: under 1000 nM. The same measure for `CC(C)(C)OC(=O)N[C@H]1CCCCC/C=C\[C@@H]2C[C@@]2(C(=O)O)NC(=O)[C@@H]2C[C@@H](NC(=O)c3sc4cc(F)ccc4c3Cl)CN2C1=O` [Example 65]: under 1000 nM. The molecule `CC(C)(C)OC(=O)N[C@H]1CCCCC/C=C\[C@@H]2C[C@@]2(C(=O)O)NC(=O)[C@@H]2C[C@@H](NC(=O)c3cc4ccccc4o3)CN2C1=O` [Example 66] gave an IC50 of under 1000 nM. `CC(C)(C)OC(=O)N[C@H]1CCCCC/C=C\[C@@H]2C[C@@]2(C(=O)O)NC(=O)[C@@H]2C[C@@H](NC(=O)c3ccc4cccnc4c3)CN2C1=O` [Example 67] came in with an IC50 of under 10000 nM. In turn, `CCc1ccc(C(=O)N[C@@H]2C[C@H]3C(=O)N[C@]4(C(=O)O)C[C@H]4/C=C\CCCCC[C@H](NC(=O)OC(C)(C)C)C(=O)N3C2)cc1` [Example 68] gave a concentration for half-maximal inhibition (IC50) of under 10000 nM.
